Here are results for three molecules from patent US12128114B2, “177Lu-DOTA-HYNIC-iPSMA as a therapeutic radiopharmaceutical targeting prostate-specific membrane antigen” (INSTITUTO NACIONAL DE INVESTIGACIONES NUCLEARES, priority 2018, dated 2024).

A short description of data set [1]: Stability of the radiopharmaceutical post-labelling (radiochemical purity). Format: physicochemical. The conditions noted are these: for more than 7 days post-labelling. As to the method: After reconstitution in 1.1 mL sodium acetate 1 M buffer solution pH 5.0 containing the sterile and pyrogen-free solution of lutetium-177 chloride (^177LuCl3) and incubation in a dry bath at 95° C. for 30 minutes, said formulation gave a clear, aqueous solution of the compound to be patented ^177Lu-DOTA-HYNIC-iPSMA (FIG. 1) with a radiochemical purity of more than 98%, as determined by reverse-phase HPLC, which presents the radio-chromatogram shown in FIG. 3.
(§1) The radiopharmaceutical remains stable, with a radiochemical purity of more than 98% for more than 7 days post-labelling. In vitro stability tests in human serum show a serum protein binding of 6.5±1.8% and a high radiochemical stability (>98%).

Data set [2] can be described thus: In vitro stability tests in human serum. Format: in vitro ADME.
Text: as §1

For another data set, the target named is T1, protein PSMA (Homo sapiens, UniProt Q04609).
T1 construct: saturation studies in cancer cells positive for the protein PSMA (LNCaP); endogenous in cells; host or cells: LNCaP
The data set is described as follows: Saturation studies in cancer cells positive for the protein PSMA (LNCaP). The format is binding.

Data set [3] in a line: Toxicity in balb-C laboratory mice. Format: in vivo. The conditions noted are these: dose of 40 mg/kg.
The next data set relates to LNCaP-induced tumors. The data set is described as follows: Biodistribution assays in nude mice with LNCaP-induced tumors. Format: in vivo.
The nature of data set [4]: Biokinetics and dosimetry in healthy subjects (whole-body images, OLINDA/EXM). Format: in vivo, human. As to the method: To determine the biokinetics and dosimetry for the radiopharmaceutical, whole-body images were acquired for five healthy subjects at 20 mins and 6, 24, 48 and 120 h post-administration of ^177Lu-DOTA-HYNIC-iPSMA (185 MBq). The sequence of images was used to extrapolate the time-activity curves in each organ to adjust the biokinetic model and calculate the total number of disintegrations (N) that occurred in the source regions. The values of N were used in the OLINDA/EXM code to calculate the internal doses of radiation. […] Uptake and excretion is mainly renal, with lower hepatic uptake and high uptake in the […], salivary, and lachrymal glands. The average doses absorbed were 0.23, 0.28, 0.88, and 1.17 mGy/MBq for the spleen, liver, kidney, and salivary glands, respectively.

In data set [5] the test system is metastatic prostate cancer lesions. Briefly: Radiotherapeutic potential in prostate cancer patients (68Ga-PSMA-11 PET/CT and serum PSA). The format is in vivo, human. As to the method:
To evaluate the radiotherapeutic potential, between one and four cycles of ^177Lu-DOTA-HYNIC-iPSMA (3.7 or 7.4 GBq) were administered to 11 patients (mean age: 66 years; range: 45-86) every 8-10 weeks. The response was evaluated using images with ^68Ga-PSMA-11 PET/CT (radiopharmaceutical with a proven affinity in clinical practice and a high-resolution technique for the specific detection of metastatic prostate cancer lesions) and determining serum prostate-specific antigen (PSA) levels before and after treatment.

The next data set deals with prostate cancer. The conditions noted are these: clinical studies, literature; cited from earlier work.

By Kd is commonly meant the concentration at which binding is half-saturated. Lower therefore signals a tighter complex.

T1 sequence (Q04609 whole entry): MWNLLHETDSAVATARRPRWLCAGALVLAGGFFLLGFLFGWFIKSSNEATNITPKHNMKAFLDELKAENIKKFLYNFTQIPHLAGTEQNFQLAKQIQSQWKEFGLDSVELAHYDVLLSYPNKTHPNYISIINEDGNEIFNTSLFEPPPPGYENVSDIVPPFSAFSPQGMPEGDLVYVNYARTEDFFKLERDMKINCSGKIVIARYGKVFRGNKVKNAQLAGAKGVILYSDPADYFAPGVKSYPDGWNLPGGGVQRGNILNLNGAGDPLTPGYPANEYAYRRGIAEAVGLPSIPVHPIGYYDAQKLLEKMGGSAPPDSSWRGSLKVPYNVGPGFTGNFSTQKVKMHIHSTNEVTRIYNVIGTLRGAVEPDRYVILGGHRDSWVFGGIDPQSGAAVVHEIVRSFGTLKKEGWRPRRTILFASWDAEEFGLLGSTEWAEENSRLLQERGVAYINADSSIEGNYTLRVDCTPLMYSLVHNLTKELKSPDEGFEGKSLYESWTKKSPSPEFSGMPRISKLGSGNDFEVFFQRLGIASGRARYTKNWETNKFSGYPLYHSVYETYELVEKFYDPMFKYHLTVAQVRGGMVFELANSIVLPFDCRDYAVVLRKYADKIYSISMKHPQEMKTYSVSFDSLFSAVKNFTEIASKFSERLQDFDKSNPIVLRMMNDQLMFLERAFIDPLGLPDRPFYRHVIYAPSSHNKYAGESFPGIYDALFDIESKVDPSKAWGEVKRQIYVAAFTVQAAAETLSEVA

Turning to `O=C(O)CCC(NC(=O)NC(CCCCNC(=O)C(Cc1ccc2ccccc2c1)NC(=O)c1ccc(NNC(=O)CN2CCN3CCN4CCN(CC2)CC(=O)[O][177Lu]([O]C(=O)C3)[O]C(=O)C4)nc1)C(=O)O)C(=O)O` (centres unmarked) [177Lu-DOTA-HYNIC-iPSMA], in data set [1], the “radiochemical purity (stability post-labelling)” value is recorded as “more than 98%”. In data set [2], the radiochemical stability entry was “more than 98%” and the serum protein binding turned out to be 6.5±1.8%. The “maximum number of binding sites (Bmax)” value at protein PSMA turned out to be 5.89 ± 0.47 nM. Also, in data set [3], the “toxicity or adverse effects” value is reported as “did not present toxicity or adverse effects”. Moreover, in the data set with LNCaP-induced tumors, the elimination pathway entry is “mainly renal” and the “uptake in tumors, % of the activity administered per gram of tissue” value amounted to 9.74±1.13 % ID/g. In data set [4] (healthy subjects, kidney), the “average dose absorbed, kidney” value is 0.88 mGy/MBq. In data set [4] (healthy subjects, liver), the “average dose absorbed, liver” value is on record as 0.28 mGy/MBq. The “average dose absorbed, salivary glands” value in data set [4] (healthy subjects, salivary glands) is reported as 1.17 mGy/MBq. For the same molecule, the “average dose absorbed, spleen” value in data set [4] (healthy subjects, spleen) came to 0.23 mGy/MBq. In addition, the uptake and excretion entry in data set [4] (healthy volunteers) is on record as “mainly renal”. Besides, in data set [4] (healthy volunteers, 185 MBq, ln 2/0.008), the “half life, second slow component (T1/2γ)” value is 79.6 h. For the same molecule, the “half life, first slow component (T1/2β)” value in data set [4] (healthy volunteers, 185 MBq, ln 2/0.075) is 9.2 h. Moreover, the “half life, fast component (T1/2α)” value in data set [4] (healthy volunteers, 185 MBq, ln 2/0.614) came out at 1.1 h. Besides, the “patients exhibiting a reduction in PSA” value in data set [5] (11 patients, one to four cycles of 3.7 or 7.4 GBq every 8-10 weeks) is listed as “Around 60%”. Besides, the “patients with a reduction in the number and size of metastatic lesions and/or uptake intensity, by imaging” value in data set [5] (11 patients, one to four cycles of 3.7 or 7.4 GBq, 68Ga-PSMA-11 PET/CT) is recorded as 70%. In addition, the “metastatic lesion sites on 68Ga-PSMA-11 PET follow-up” value in data set [5] (one patient, three cycles of treatment (FIG. 6)) is “decrease in size and number”.
As to `O=C(O)CCC(NC(=O)NC(CCCCNC(=O)C(Cc1ccc2ccccc2c1)NC(=O)c1ccc(NNC(=O)CN2CCN3CCN4CCN(CC2)CC(=O)[O][Lu]([O]C(=O)C3)[O]C(=O)C4)nc1)C(=O)O)C(=O)O` (centres unmarked) [177Lu-DOTA-HYNIC-iPSMA], the Kd at protein PSMA is 6.33 ± 2.69 nM.
Take `O=C([O-])CN1CCN(CC(=O)[O-])CCN(CC(=O)NCC2CCC(C(=O)N[C@@H](Cc3ccc4ccccc4c3)C(=O)NCCCC[C@H](NC(=O)N[C@@H](CCC(=O)O)C(=O)O)C(=O)O)CC2)CCN(CC(=O)[O-])CC1.[177Lu+3]` (some centres unmarked) [Lu-PSMA-617]: the side-effects entry in the data set with prostate cancer was “no severe side-effects”.
